From ChEMBL document CHEMBL1158677, “New Diterpene Lactones from the Sponge Spongia matamata” (J Nat Prod, 1998)

Test system: Artemia
Assay: Toxicity in brine shrimp
Assay type: organism-based
Details: in vivo; call rule not given here

Structure (SMILES): C[C@]12CC(=O)O[C@@](C)(CO)[C@@H]1CC[C@@]1(C)c3cocc3CC[C@H]21
- Activity: Not Active
